# ChEMBL document CHEMBL1938346, “Structure-activity studies of diazabicyclo[3.3.0]octane-substituted pyrazines and pyridines as potent α4β2 nicotinic acetylcholine receptor ligands” (J Med Chem, 2011)
# Assays:
# [1] = Agonist activity at nAChR alpha3beta4* expressed in human IMR32 cells assessed as calcium flux by FLIPR assay; assay type: functional, cell-based
# [2] = target: Neuronal acetylcholine receptor; alpha4/beta2 (Rattus norvegicus, UniProt P09483+P12390); test: Displacement of [3H]cytisine from nAChR alpha4beta2 in rat brain membrane; assay type: cell membranes
# Neuronal acetylcholine receptor; alpha4/beta2, sequence (P09483 whole entry): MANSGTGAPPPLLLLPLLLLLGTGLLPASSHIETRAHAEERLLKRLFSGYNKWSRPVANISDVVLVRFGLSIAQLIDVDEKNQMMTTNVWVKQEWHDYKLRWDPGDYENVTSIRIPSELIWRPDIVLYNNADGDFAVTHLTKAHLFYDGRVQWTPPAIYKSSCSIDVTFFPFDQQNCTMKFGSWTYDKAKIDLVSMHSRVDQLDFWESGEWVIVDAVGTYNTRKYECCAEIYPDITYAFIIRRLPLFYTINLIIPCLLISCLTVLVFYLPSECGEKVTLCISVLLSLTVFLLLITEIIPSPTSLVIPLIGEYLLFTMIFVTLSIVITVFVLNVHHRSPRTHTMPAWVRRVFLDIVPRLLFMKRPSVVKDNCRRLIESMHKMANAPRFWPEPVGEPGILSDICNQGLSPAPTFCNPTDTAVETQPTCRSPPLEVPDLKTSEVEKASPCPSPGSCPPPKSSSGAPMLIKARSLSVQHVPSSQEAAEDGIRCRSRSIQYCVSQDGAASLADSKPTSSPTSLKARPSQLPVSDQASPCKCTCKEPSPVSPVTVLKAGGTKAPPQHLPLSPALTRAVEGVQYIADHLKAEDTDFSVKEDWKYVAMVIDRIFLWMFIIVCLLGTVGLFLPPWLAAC
# Neuronal acetylcholine receptor; alpha4/beta2, sequence (P12390 whole entry): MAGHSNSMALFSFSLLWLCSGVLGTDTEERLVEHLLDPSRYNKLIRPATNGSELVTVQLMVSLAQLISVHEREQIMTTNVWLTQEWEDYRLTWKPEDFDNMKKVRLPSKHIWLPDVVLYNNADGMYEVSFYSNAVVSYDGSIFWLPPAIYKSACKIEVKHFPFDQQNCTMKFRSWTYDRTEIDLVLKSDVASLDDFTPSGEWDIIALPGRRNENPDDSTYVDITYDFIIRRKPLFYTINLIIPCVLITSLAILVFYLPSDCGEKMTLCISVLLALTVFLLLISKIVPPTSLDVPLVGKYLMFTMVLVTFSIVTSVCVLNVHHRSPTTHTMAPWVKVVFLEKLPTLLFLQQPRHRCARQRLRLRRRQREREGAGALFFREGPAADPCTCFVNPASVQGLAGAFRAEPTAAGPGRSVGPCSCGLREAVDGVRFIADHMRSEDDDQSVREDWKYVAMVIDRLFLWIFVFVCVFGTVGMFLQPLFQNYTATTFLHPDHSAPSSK
# [3] = Agonist activity at nAChR alpha3beta4* expressed in human IMR32 cells assessed as calcium flux by FLIPR assay relative to nicotine; assay type: functional; conditions: IMR-32
# [4] = Drug uptake in rat plasma at 2 umol/kg, ip measured after 0.75 hrs; assay type: ADME, organism-based
# [5] = Drug uptake in rat brain at 2 umol/kg, ip measured after 0.75 hrs; assay type: ADME, organism-based; conditions: read-out: Drug uptake
# [6] = Ratio drug uptake in brain to plasma of rat at 2 umol/kg, ip measured after 0.75 hrs; assay type: ADME, organism-based; conditions: read-out: BPR
# [7] = Half life in rat at 2 umol/kg, ip measured after 8 hrs; assay type: ADME, organism-based; conditions: in vivo
# [8] = Oral bioavailability in rat at 2 umol/kg; assay type: ADME, organism-based; conditions: in vivo
# [9] = Half life in rat at 2 umol/kg, po measured after 8 hrs; assay type: ADME, organism-based; conditions: in vivo
# [10] = Half life in rat at 2 umol/kg, iv measured after 8 hrs; assay type: ADME, organism-based; conditions: in vivo
# [11] = Bioavailability in rat at 2 umol/kg, ip; assay type: ADME, organism-based; conditions: in vivo
"EC50 ([1]; IMR-32, read-out: EC50)",Ki ([2]; read-out: Ki),Structure (SMILES),Emax [3],also measured
> 100000 nM,17 nM,O=C(NC1CCc2ccccc21)c1cncc(N2C[C@H]3CNC[C@H]3C2)c1 (stereo not given in full),10%,–
–,132 nM,CC(NC(=O)c1cncc(N2C[C@H]3CNC[C@H]3C2)n1)c1ccccc1 (stereo not given in full),–,–
> 100000 nM,0.7 nM,O=C(Nc1cccc(Cl)c1)c1cncc(N2C[C@H]3CNC[C@H]3C2)n1,26%,–
15800 nM,0.8 nM,O=C(NCCc1ccccc1F)c1cncc(N2C[C@H]3CNC[C@H]3C2)c1,6%,"EC50 ([1]; IMR-32, read-out: pEC50 (converted)): 15800 nM"
–,2630 nM,Cc1cccc(NC(=O)c2cncc(N3C[C@@H]4CCN[C@@H]4C3)n2)c1,–,–
> 100000 nM,69 nM,O=C(NCCc1ccccc1)c1cncc(N2C[C@H]3CNC[C@H]3C2)n1,13%,–
> 100000 nM,26 nM,CC(C)Oc1cccc(NC(=O)c2cncc(N3C[C@H]4CNC[C@H]4C3)n2)c1,7%,–
> 100000 nM,3.9 nM,O=C(NCc1ccccc1)c1cncc(N2C[C@H]3CNC[C@H]3C2)n1,10%,concentration at 0.75 h [4]: 81.3 ng/mL; concentration at 0.75 h [5]: 3 ng/mL; Kp at 0.75 h [6]: 0.04
> 100000 nM,3.9 nM,CN(Cc1ccccc1)C(=O)c1cncc(N2C[C@H]3CNC[C@H]3C2)c1,14%,concentration at 0.75 h [4]: 89.8 ng/mL; concentration at 0.75 h [5]: 6 ng/mL; Kp at 0.75 h [6]: 0.07
> 100000 nM,0.3 nM,COc1cc(NC(=O)c2cncc(N3C[C@H]4CNC[C@H]4C3)c2)cc(OC)c1,10%,concentration at 0.75 h [4]: 74.5 ng/mL; concentration at 0.75 h [5]: 5.5 ng/mL; Kp at 0.75 h [6]: 0.07
–,35 nM,CC(C)c1cccc(NC(=O)c2cncc(N3C[C@H]4CNC[C@H]4C3)n2)c1,–,–
> 100000 nM,7.6 nM,Cc1cccc(NC(=O)c2cncc(N3C[C@H]4CNC[C@H]4C3)n2)c1,10%,–
> 100000 nM,2.7 nM,Cc1ccccc1CNC(=O)c1cncc(N2C[C@H]3CNC[C@H]3C2)c1,8%,concentration at 0.75 h [4]: 142 ng/mL; concentration at 0.75 h [5]: 3.3 ng/mL; Kp at 0.75 h [6]: 0.02
–,5600 nM,Cc1ccccc1CNC(=O)c1cncc(N2CC[C@@H]3CNC[C@@H]32)n1,–,–
> 100000 nM,1.1 nM,CC(C)Oc1cccc(NC(=O)c2cncc(N3C[C@H]4CNC[C@H]4C3)c2)c1,10%,–
> 100000 nM,39 nM,C[C@H](NC(=O)c1cncc(N2C[C@H]3CNC[C@H]3C2)c1)c1ccccc1,5%,–
–,174 nM,CN(Cc1ccccc1)C(=O)c1cncc(N2C[C@H]3CNC[C@H]3C2)n1,–,–
> 100000 nM,0.04 nM,O=C(Nc1cc(F)cc(F)c1)c1cncc(N2C[C@H]3CNC[C@H]3C2)c1,18%,–
–,51 nM,Cc1cc(C)cc(NC(=O)c2cncc(N3C[C@H]4CNC[C@H]4C3)n2)c1,–,–
> 100000 nM,1.7 nM,Cc1ccccc1CNC(=O)c1cncc(N2C[C@H]3CNC[C@H]3C2)n1,17%,half-life [7]: 2.4 h; concentration at 0.75 h [4]: 178 ng/mL; bioavailability [8]: 35%; half-life [9]: 2.1 h; half-life [10]: 1.7 h; bioavailability [11]: 77%; concentration at 0.75 h [5]: 8 ng/mL; Kp at 0.75 h [6]: 0.04
–,–,c1ccc(COc2cncc(N3C[C@H]4CNC[C@H]4C3)n2)cc1,–,concentration at 0.75 h [4]: 23.5 ng/mL; concentration at 0.75 h [5]: 76.8 ng/mL; Kp at 0.75 h [6]: 3.27
> 100000 nM,14 nM,O=C(Nc1cc(F)cc(F)c1)c1cncc(N2C[C@H]3CNC[C@H]3C2)n1,8%,–
> 100000 nM,2.5 nM,O=C(NCc1ccc(Cl)c(Cl)c1)c1cncc(N2C[C@H]3CNC[C@H]3C2)n1,12%,–
–,871 nM,Cc1ccccc1CNC(=O)c1cncc(N2CC[C@H]3CNC[C@H]32)c1,–,–
> 100000 nM,0.9 nM,O=C(NCc1ccccc1C(F)(F)F)c1cncc(N2C[C@H]3CNC[C@H]3C2)c1,4%,concentration at 0.75 h [4]: 164 ng/mL; concentration at 0.75 h [5]: 6.9 ng/mL; Kp at 0.75 h [6]: 0.04
> 100000 nM,0.3 nM,Cc1cc(C)cc(NC(=O)c2cncc(N3C[C@H]4CNC[C@H]4C3)c2)c1,6%,Ki ([2]; read-out: pKi (converted)): 0.339 nM
> 100000 nM,2.2 nM,C[C@@H](NC(=O)c1cncc(N2C[C@H]3CNC[C@H]3C2)c1)c1ccccc1,6%,concentration at 0.75 h [4]: 139 ng/mL; concentration at 0.75 h [5]: 20.6 ng/mL; Kp at 0.75 h [6]: 0.15
–,> 10000 nM,Cc1ccccc1CNC(=O)c1cncc(N2C[C@@H]3CCN[C@@H]3C2)n1,–,Ki ([2]; read-out: pKi (converted)): > 10000 nM
> 100000 nM,3.3 nM,O=C(Nc1cccc(I)c1)c1cncc(N2C[C@H]3CNC[C@H]3C2)n1,7%,–

Structure (SMILES),"EC50 ([1]; IMR-32, read-out: EC50)",Ki ([2]; read-out: Ki),Emax [3],also measured
c1cncc(N2C[C@H]3CNC[C@H]3C2)c1,–,0.13 nM,–,–
O=C(c1cncc(N2C[C@H]3CNC[C@H]3C2)c1)N1CCc2ccccc2C1,> 100000 nM,0.3 nM,7%,–
O=C(Nc1ccc(Cl)cc1)c1cncc(N2C[C@H]3CNC[C@H]3C2)c1,> 100000 nM,0.2 nM,8%,–
O=C(Nc1cccc(I)c1)c1cncc(N2C[C@H]3CNC[C@H]3C2)c1,> 100000 nM,0.02 nM,6%,Ki ([2]; read-out: pKi (converted)): 0.0245 nM
c1cncc(N2C[C@@H]3CCN[C@@H]3C2)c1,–,2.9 nM,–,–
Cc1cccc(NC(=O)c2cncc(N3C[C@H]4CNC[C@H]4C3)c2)c1,> 100000 nM,0.1 nM,6%,concentration at 0.75 h [4]: 52.1 ng/mL; concentration at 0.75 h [5]: 6.4 ng/mL; Kp at 0.75 h [6]: 0.12
c1cncc(N2C[C@H]3CCN[C@H]3C2)c1,–,0.34 nM,–,–
c1cnc(N2C[C@H]3CNC[C@H]3C2)cn1,–,7.8 nM,–,–
